Paper PMC4718634, “Murine GPRC6A Mediates Cellular Responses to L-Amino Acids, but Not Osteocalcin Variants” (PLoS ONE, 2016)
Entries after “also recorded” stand apart in the source; their conditions may differ. Where two headings read alike, the source gives them in different places.

How the values were obtained:
GPRC6A = conditions: bind in the 7TM domain; ref [3], [4]; cited from earlier work
Source text: GPRC6A is a class C G protein-coupled receptor (GPCR) that has been cloned from human, mouse and rat. The receptor was initially deorphanised by fusion of its large N-terminal domain to the heptahelical and C-terminal region of the related goldfish 5.24 receptor [1]. […] These ligands are thought to bind in the N-terminal domain of the receptor [2] in a manner analogous to the binding of L-glutamate to metabotropic glutamate receptors. Small molecules, ...

GLUTag cells [1] = test: GLP-1 release from GLUTag cells; assay type: cell-based, murine; conditions: NPS-2143 10 μM, 30 min pre-treatment; ^P < 0.05 vs L-ornithine alone; Fig 6A
Experimental: Intestinal L-cell model GLUTag cells were seeded in 24-well plates coated with Matrigel and incubated for 6 days in DMEM with 10% FBS, 100 U/ml penicillin, 100 μg/ml streptomycin at 37°C in 5% CO2 and grown for 4–5 days. Where indicated, cells were washed (1 or 2 x 1h) with Krebs-HEPES buffer (20 mM HEPES, 118 mM NaCl, 4.7 mM KCl, 1.2 mM MgSO4, 5 mM NaHCO3, 1.2 mM KH2PO4, 2.5 mM CaCl2, 5.5 mM glucose, 0.2% BSA (w/v), pH 7.2) containing vildagliptin (300 μM) prior to addition of test compounds in the same buffer. After 2 h incubation at 37°C in 5% CO2, the supernatant was recovered and centrifuged at 500 rpm for 5 min. Where used, NPS-2143 pre-treatment was for 30 min.
GLP-1 content in the cell supernatant was measured by ELISA (EGLP-35K, Millipore), according to manufacturer’s instructions after overnight incubation of 15 μl supernatant in 100 μl Krebs-HEPES buffer at 4°C. After 5 x washes, 200 μl of detection conjugate was added and incubated for 2 h at RT. After 3 x washes the reaction was developed with 200 μl of diluted substrate (1:200) for 20 min and terminated by addition of 50 μl stop solution. After 5 min, fluorescence was then measured using 355 nm excitation and 460 nm emission, transforming the obtained signal into pmol GLP-1/well/ml and corrected for GLUTag cell protein content as determined using the method of Bradford (1976).
(§1) Concentration-response data were analysed using a three or four parameter logistic function (Motulsky & Christopoulos, 2004) to generate estimates of agonist potency (LogEC50). Data for all HEK293 assays represent the mean ± SEM of at least three independent experiments (except cell impedance, n = 2). For GLP-1 release, the data represent mean ± SEM of three to five independent experiments (except for OCN, wash; n = 2). For insulin release assays, data represent the mean ± SEM of three independent experiments (except for islet studies; n = 2). Insulin release data were normalised to the response to vehicle in either low or high [glucose]. Statistical analysis for GLP-1 release data were performed by one-way ANOVA, followed by Sidak’s multiple comparisons test (treating wash / no wash datasets separately). Statistical analyses for insulin release data were performed by two-way ANOVA (with [glucose] and drug treatment as group variables), followed by Sidak’s multiple comparisons test. Where only high [glucose] groups were evaluated, statistical analysis was by one-way ANOVA followed by Sidak’s multiple comparisons test.

MIN6 cells = test: Insulin release from MIN6 cells; assay type: cell-based, murine; conditions: NPS-2143 10 μM; ^^P < 0.01 vs L-ornithine alone; Fig 6B
Experimental: MIN6 or βTC-6 cells were seeded in 24-well plates at 170,000 cells per well in DMEM (containing 4.5g/L glucose, 10 mM HEPES, 100 U/ml penicillin, 100 μg/ml streptomycin and 15% de-complemented FBS) and incubated at 37°C / 5% CO2 for 72 h. Cells were then washed with 500 μl PBS and incubated in 500 μl deprivation media (DMEM with zero glucose, 10 mM HEPES, 1 mM Na-pyruvate, 100 U/ml penicillin, 100 μg/ml streptomycin, 15% de-complemented FBS) for 2 h at 37°C. Media was aspirated and after washing with 500 μl PBS, cells were treated with 250 μl of Krebs buffer (250 mM NaCl, 5.9 mM KCl, 1.2 mM MgCl2, 1.3 mM CaCl2, 25 mM HEPES, 0.1% BSA (w/v), and 2 mM or 16.7 mM glucose; pH 7.4) in the presence or absence of test compound. After incubation for 2 h at 37°C, the assay was terminated by placing the plates on ice and supernatants were transferred to a 96-well plate in preparation for insulin ELISA (Alpco) following manufacturer’s instructions. The cell monolayer was washed twice with 500 μl of PBS and then lysed using 250 μl of 1 N NaOH prior to protein measurement by the method of Bradford (1976).
as §1

mGPRC6A (mouse GPRC6A) = biological target: T1, mGPRC6A (mouse GPRC6A) (Mus musculus, UniProt Q8K4Z6); test: Inositol phosphate (IP-One HTRF) accumulation, FlpIn-TREx-HEK293-mGPRC6A cells; assay type: cell-based; conditions: NPS-2143 30 μM; Fig 1C
T1 sequence (Q8K4Z6 21-928): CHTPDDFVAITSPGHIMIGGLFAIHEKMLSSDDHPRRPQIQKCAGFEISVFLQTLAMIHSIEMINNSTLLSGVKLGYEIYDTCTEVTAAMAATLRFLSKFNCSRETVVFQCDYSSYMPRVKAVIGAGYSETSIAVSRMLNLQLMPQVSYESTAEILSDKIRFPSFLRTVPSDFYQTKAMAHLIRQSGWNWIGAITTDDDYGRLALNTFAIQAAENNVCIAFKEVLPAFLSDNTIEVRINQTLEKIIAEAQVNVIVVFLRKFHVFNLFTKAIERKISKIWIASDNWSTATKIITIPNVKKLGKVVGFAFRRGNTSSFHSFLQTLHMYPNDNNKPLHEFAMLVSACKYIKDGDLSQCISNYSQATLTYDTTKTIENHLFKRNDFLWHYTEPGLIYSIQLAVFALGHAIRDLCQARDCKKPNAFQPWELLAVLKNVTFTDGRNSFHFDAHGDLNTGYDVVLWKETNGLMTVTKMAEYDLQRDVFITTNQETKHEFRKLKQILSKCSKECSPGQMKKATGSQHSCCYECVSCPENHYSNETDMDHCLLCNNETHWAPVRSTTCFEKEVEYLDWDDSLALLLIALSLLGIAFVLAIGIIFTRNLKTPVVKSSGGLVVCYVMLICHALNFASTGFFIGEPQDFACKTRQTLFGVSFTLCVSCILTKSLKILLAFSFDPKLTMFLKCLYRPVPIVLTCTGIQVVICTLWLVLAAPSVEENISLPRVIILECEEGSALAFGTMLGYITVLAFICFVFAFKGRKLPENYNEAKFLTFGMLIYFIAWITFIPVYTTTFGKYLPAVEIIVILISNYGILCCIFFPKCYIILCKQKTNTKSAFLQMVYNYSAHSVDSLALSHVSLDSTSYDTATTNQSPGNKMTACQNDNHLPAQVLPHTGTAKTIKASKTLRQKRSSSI
Experimental: pcDNA 5/FRT/TO constructs were isogenically integrated into a FlpIn-TREx-HEK293 cell line (Life Technologies). FlpIn-TREx-HEK293-mGPRC6A and FlpIn-TREx-HEK293-hGPRC6A cells were then selected using 600 μg/ml hygromycin and 5 μg/ml blasticidin and grown in culture medium consisting of Dulbecco’s Modified Eagle Medium (DMEM), supplemented with 10% (v/v) foetal bovine serum (FBS) at 37°C in 5% CO2 and were sub-cultured in a 1:3 ratio every 3–4 days. Cells were cultured overnight in the presence of 1 μg/ml tetracycline to induce GPRC6A expression. […] 48 h after transfection, cells were selected using 3 μg/ml puromycin and grown as above.
Inositol phosphate (IPX) accumulation experiments were performed using the IP-One HTRF® assay kit (Cisbio, France). Briefly, 24h after transfection with G proteins (as above), 10^5 cells were seeded per well in PDL-coated, 96-well white plates and incubated overnight. Cells were then washed 2 x 2h at 37°C in HBSS buffer (pH 7.2) containing 20 mM HEPES, 3.5 mM NaHCO3, 1 mM CaCl2 and 0.1% (w/v) BSA. Test compounds were then prepared in the kit stimulation buffer containing 2 mM CaCl2; cells were then incubated with 70 μl of drugs for 30 min, after which 15 μl of both IP1-D2 and Ab-Cryp were added to the cells, followed by a 1 h incubation at RT. Plates were read using an Envision plate reader (Perkin Elmer), using an HTRF protocol. Results were calculated from the 665nm / 620nm HTRF ratio (Ratio = A665nm/A620nm x 10^4) and expressed as a percentage of the maximal response obtained.
as §1

mC6A = conditions: cited from earlier work
Source text: (§2) Supplement pone.0146846.s004.docx, table 1 | column: Functional assay

PC-3 cells = conditions: endogenous; ref [18] (supplement list); cited from earlier work
Source text: as §2

GLUTag cells [2] = conditions: endogenous; ref [17] (supplement list); cited from earlier work
Source text: as §2

Compound	modulation of GPRC6A (GPRC6A)	reversal of L-ornithine-stimulated GLP-1 release (GLUTag cells [1])	reversal of L-ornithine-stimulated insulin secretion (MIN6 cells)	inhibition of L-ornithine-stimulated inositol phosphate accumulation (mGPRC6A (mouse GPRC6A))	IP-One HTRF response (mC6A; ref [13] (supplement list))	cAMP response (mC6A; ref [13] (supplement list))	pERK response (mC6A; ref [13] (supplement list))	cAMP response (mC6A; ref [18] (supplement list))	pERK1/2 response (mC6A; ref [18] (supplement list))	pERK1/2 response (PC-3 cells)	antagonism, Ca^2+i (GLUTag cells [2])	antagonism, GLP-1 secretion (GLUTag cells [2])
CC(C)(Cc1ccc2ccccc2c1)NC[C@@H](O)COc1cccc(Cl)c1C#N [NPS-2143]	negative allosteric modulators	fully reversed; also recorded: significantly reversed; also recorded: NPS-2143-sensitive	fully reversed	inositol phosphate accumulation in response to L-ornithine was sensitive to application of the GPRC6A antagonist, NPS-2143; also recorded: can be inhibited with the antagonist								
C[C@]12CC[C@H]3[C@@H](CCC4=CC(=O)CC[C@@]43C)[C@@H]1CC[C@@H]2O [Testosterone]					No response	no response	No specific response	cAMP – response to Testosterone, L-Arg pERK1/2 – response to Testosterone	cAMP – response to Testosterone, L-Arg pERK1/2 – response to Testosterone	pERK1/2 – response to Testosterone, L-Arg		
C[C@@H](NCc1cc2ccccc2[nH]1)c1cccc2ccccc12 [calindol]	negative allosteric modulators										antagonist	antagonist
